Experimental findings from PubChem BioAssay (NCI) are described below.

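Exposure lasted 48 hours, with cells grown in 96-well plates and compounds tested at five concentrations. GI50: concentration for 50% inhibition of growth. TGI: total growth inhibition.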

Test systems include KM12 colon; SF-539 CNS; MCF7 breast; SK-MEL-2 melanoma; HS 578T breast; UO-31 renal; PC-3 prostate; ACHN renal; SR leukemia; MALME-3M melanoma.
Common to all, as to experiment: DTP human tumour cell line panel, 48 h

Take `COc1c(OC)c(OC)c2c(c1OC)c(=O)c1ccccc1n2C`: the TGI in the experiment with KM12 colon, in the experiment with SF-539 CNS, in the experiment with MCF7 breast, in the experiment with SK-MEL-2 melanoma, with HS 578T breast and with UO-31 renal was > 100 µM in each case. The TGI with PC-3 prostate, with ACHN renal and in the experiment on SR leukemia was > 100 µM in each case.
For the compound `CC[C@H](Nc1nc(NCc2cnc(C)cc2C)c2ncn(C(C)C)c2n1)[C@@H](C)O`, the concentration for 50% growth inhibition (GI50) in the experiment on KM12 colon is 0.312 µM; in the experiment on SF-539 CNS, 0.24 µM; with MCF7 breast, 0.284 µM; in the experiment with SK-MEL-2 melanoma it was 0.549 µM; in the experiment with HS 578T breast, 0.281 µM; in the experiment on UO-31 renal, 0.272 µM. In addition, the GI50 is 0.314 µM in the experiment on PC-3 prostate, 0.327 µM with ACHN renal and 1.18 µM with MALME-3M melanoma. The TGI in the experiment with KM12 colon was 12.2 µM; with SF-539 CNS, 0.781 µM; in the experiment with MCF7 breast, 7.23 µM; in the experiment on SK-MEL-2 melanoma, 3.01 µM; with HS 578T breast it was 0.956 µM; in the experiment with UO-31 renal it was > 100 µM. For the same compound, the concentration for total growth inhibition (TGI) in the experiment with PC-3 prostate is > 100 µM; with ACHN renal it was > 100 µM; in the experiment on MALME-3M melanoma, 4.22 µM.
In the case of `O=C(CNc1ccc2c(c1)C(=O)c1ccccc1C2=O)Nc1ccc2c(c1)C(=O)c1ccccc1C2=O`, the GI50 in the experiment with KM12 colon is 1.4 µM; in the experiment on SF-539 CNS it was 1.78 µM; with MCF7 breast, 0.809 µM; with SK-MEL-2 melanoma, 0.697 µM; in the experiment with HS 578T breast, 2.29 µM; in the experiment on UO-31 renal it was 1.67 µM. Besides, the GI50 in the experiment with PC-3 prostate is 1.29 µM; in the experiment on ACHN renal, 1.58 µM; with MALME-3M melanoma, 0.739 µM. Also, the TGI with KM12 colon came out at 2.73 µM; in the experiment on SF-539 CNS it was 3.46 µM; with MCF7 breast it was 2.6 µM; in the experiment on SK-MEL-2 melanoma, 2 µM; in the experiment with HS 578T breast, 13.2 µM; with UO-31 renal, 3.1 µM. In addition, the concentration for total growth inhibition (TGI) came out at 3.48 µM in the experiment with PC-3 prostate, 3.01 µM in the experiment with ACHN renal and 2.36 µM with MALME-3M melanoma.
Take `O=C(Nc1cc(Cl)cc(Cl)c1)c1ccc(NC2=C(Cl)C(=O)N(Cc3ccc(Cl)cc3Cl)C2=O)cc1`: the GI50 in the experiment with KM12 colon was 13.6 µM; in the experiment with SF-539 CNS it was 6.94 µM; in the experiment on MCF7 breast, 3.18 µM; with SK-MEL-2 melanoma, 23.5 µM; in the experiment on HS 578T breast, 8.12 µM; in the experiment on UO-31 renal it was 1.7 µM. Also, the GI50 in the experiment on PC-3 prostate was 13.1 µM; with ACHN renal, 19 µM; in the experiment on SR leukemia it was 0.0622 µM. The concentration for total growth inhibition (TGI) with KM12 colon stood at 47.7 µM; in the experiment on SF-539 CNS it was 25.3 µM; in the experiment with MCF7 breast, 12.9 µM; with SK-MEL-2 melanoma, 43.9 µM; in the experiment with HS 578T breast, 54.7 µM; in the experiment on UO-31 renal it was 3.25 µM. The TGI in the experiment on PC-3 prostate worked out at 25.8 µM; in the experiment with ACHN renal, 48.9 µM; in the experiment with SR leukemia, 0.238 µM.
Turning to `Cc1ccc(/C=C2/SC(Nc3nc(-c4csc(NC5=NC(=O)/C(=C\c6ccc(C)cc6)S5)n4)cs3)=NC2=O)cc1`, the GI50 in the experiment on KM12 colon is 3.47 µM; in the experiment on SF-539 CNS it was 13.5 µM; in the experiment on MCF7 breast, 2.3 µM; with SK-MEL-2 melanoma, > 50 µM; in the experiment on HS 578T breast it was 21.9 µM; with UO-31 renal, 17.9 µM. The GI50 with PC-3 prostate was 6.52 µM. In addition, the total growth inhibition concentration (TGI) was > 50 µM in the experiment on KM12 colon; 39.7 µM in the experiment with SF-539 CNS; > 50 µM in the experiment on MCF7 breast; > 50 µM in the experiment with SK-MEL-2 melanoma; > 50 µM in the experiment with HS 578T breast; > 50 µM in the experiment with UO-31 renal. The TGI in the experiment with PC-3 prostate was > 50 µM.
`O=C1c2cc3c(cc2-c2c1c1ccc(Cl)cc1c(=O)n2CCCNCCO)OCO3`: the GI50 in the experiment on KM12 colon was 1.17 µM; with SF-539 CNS, 0.242 µM; with MCF7 breast, 0.0176 µM; with SK-MEL-2 melanoma, 1.97 µM; in the experiment on HS 578T breast, 1.73 µM; in the experiment with UO-31 renal, 0.0608 µM. Moreover, the results for the GI50 with PC-3 prostate and in the experiment on ACHN renal were 1.07 µM and 0.0383 µM, respectively. Further, the concentration for total growth inhibition (TGI) in the experiment with KM12 colon was determined as 2.61 µM; with SF-539 CNS, 1.35 µM; in the experiment on MCF7 breast, 0.179 µM; in the experiment with SK-MEL-2 melanoma, 3.54 µM; in the experiment with HS 578T breast, 4 µM; in the experiment with UO-31 renal it was 1.87 µM. Besides, the concentration for total growth inhibition (TGI) with PC-3 prostate came out at 2.55 µM; in the experiment on ACHN renal, 1.44 µM.
In the case of `CCC/C(=N/N=C(N)N)c1ccc(NC(=O)c2cc3cc(OC)ccc3[nH]2)cc1`, the GI50 with KM12 colon was 2.28 µM; in the experiment with SF-539 CNS, 8.65 µM; in the experiment on MCF7 breast, 2.76 µM; with SK-MEL-2 melanoma, 18.3 µM; with HS 578T breast it was 14 µM; in the experiment on UO-31 renal, 17.9 µM. Moreover, in the experiment on ACHN renal, the GI50 was 13.1 µM. Further, the TGI in the experiment with KM12 colon was 4.78 µM; in the experiment with SF-539 CNS, 30.8 µM; in the experiment on MCF7 breast, 12.2 µM; in the experiment with SK-MEL-2 melanoma, 38.9 µM; with HS 578T breast, 48.4 µM; with UO-31 renal it was 38 µM. The TGI in the experiment with ACHN renal is 33.1 µM.
For `Cc1ccccc1N=Nc1ccc(NC(=O)c2ccnn2C)c(C)c1`, the GI50 is > 100 µM with KM12 colon; 36.5 µM with SF-539 CNS; 17.8 µM in the experiment with MCF7 breast; 28.6 µM in the experiment with SK-MEL-2 melanoma; 22.1 µM with HS 578T breast; 11.2 µM in the experiment with UO-31 renal. Besides, the GI50 in the experiment with PC-3 prostate was 92.7 µM; in the experiment on ACHN renal, 23.9 µM; with MALME-3M melanoma, 14.5 µM. In addition, the total growth inhibition concentration (TGI) with KM12 colon, in the experiment with SF-539 CNS, with MCF7 breast, in the experiment on SK-MEL-2 melanoma, in the experiment on HS 578T breast and in the experiment with UO-31 renal was > 100 µM in each case. Moreover, the TGI in the experiment with PC-3 prostate, in the experiment on ACHN renal and in the experiment with MALME-3M melanoma was > 100 µM throughout.
In the case of `CCC/C(=N/NC(=O)C(N)=O)C(CC)C(=O)CCC(=O)N(Cc1ccccc1)Cc1ccccc1` (configuration not stated), the total growth inhibition concentration (TGI) in the experiment on KM12 colon, in the experiment with SF-539 CNS, in the experiment on SK-MEL-2 melanoma, in the experiment on UO-31 renal, in the experiment on ACHN renal and in the experiment with MALME-3M melanoma was > 100 µM throughout. Moreover, the total growth inhibition concentration (TGI) with SR leukemia is > 100 µM.
